Measured values as given in PMC11767582, “Synthesis and Biological Evaluation of New cis-Restricted Triazole Analogues of Combretastatin A-4” (Molecules, 2025).
Like-named read-outs stand apart in the source and are kept apart here.

Key:
HT-29 = system: HT-29; design: method as in PMID 18396050, PMID 18681482, PMID 22137934, PMID 22304851, PMID 24222525; settings: known triazole analogues of CA-4; ref [15],[16],[17],[18],[19],[20]; read-out: IC50 HT-29 (Figure 2); cited from earlier work
[1] = MTT cytotoxicity (growth inhibition) assay, HEK-293 (non-tumor); format: cell-based; settings: human, HEK-293 embryonic kidney cells (non-tumor)
Method: (§1) • Cell culture. Cell culture media were purchased from Gibco (Grand Island, NY, USA). Fetal bovine serum (FBS) was a product of Harlan-Seralab (Belton, UK). Supplements and other chemicals not listed in this section were obtained from Sigma Chemical Co. (St. Louis, MO, USA). Plastics for cell culture were supplied by Thermo Scientific BioLite. All tested compounds were dissolved in DMSO at a concentration of 20 mM and stored at –20 °C until use. HT-29, A-549, and HEK-293 cell lines were maintained in a Dulbecco’s modified Eagle’s medium (DMEM) containing glucose (1 g/L), glutamine (2 mM), penicillin (50 μg/mL), streptomycin (50 μg/mL), and amphotericin B (1.25 μg/mL), supplemented with 10% FBS. • Cytotoxicity assays. 5 × 10^3 cells per well were incubated in 96-well plates with serial dilutions of the tested compounds in a total volume of 100 μL of their growth media. 3-(4,5-dimethylthiazol-2-yl)-2,5-diphenyltetrazolium bromide (MTT; Sigma Chemical Co.) dye reduction assay in 96-well microplates was used. Then, 10 μL of MTT (5 mg/mL in phosphate-buffered saline, PBS) was added to each well after 2 days of incubation (37 °C, 5% CO2 in a humid atmosphere). The plate was incubated for a further 3 h (37 °C). After that, the supernatant was discarded and 100 μL of DMSO were added in order to dissolve formazan crystals. The absorbance was read at 550 nm by spectro-photometry. For all concentrations of compound, cell viability was expressed as the percentage of the ratio between the mean absorbance of treated cells and the mean absorbance of untreated cells. Three independent experiments were performed, and the IC50 values (i.e., concentration half inhibiting cell proliferation) were graphically determined using GraphPad Prism 9 software.

[2] = system: human lung cancer cell line A-549; assay: MTT cytotoxicity (growth inhibition) assay, A-549; format: cell-based
Method: as §1

[3] = system: human colon cancer cell line HT-29; assay: MTT cytotoxicity (growth inhibition) assay, HT-29; format: cell-based
Method: as §1

[4] = system: human lung cancer cell line A-549; design: method as in PMID 32033084; settings: reference compound; ref [30]; read-out: Cytotoxicity IC50 A-549; cited from earlier work
[5] = system: human embryonic kidney cell line HEK-293; design: method as in PMID 32033084; settings: reference compound; ref [30]; read-out: Cytotoxicity IC50 HEK-293; cited from earlier work
[6] = system: human colon cancer cell line HT-29; design: method as in PMID 32033084; settings: reference compound; ref [30]; read-out: Cytotoxicity IC50 HT-29; cited from earlier work
[7] = system: K562 leukemia cancer cell line; design: method as in PMID 18396050; settings: ref [15], cited from earlier work
[8] = A549, 48 h, read-out: Cytotoxicity IC50 A-549
[9] = HT-29, 48 h, read-out: Cytotoxicity IC50 HT-29
[10] = known triazole analogues of CA-4, read-out: IC50 K562 (Figure 2)

| Structure (SMILES) | IC50 at 48 h [1] [µM] | IC50 [2, 8] [µM] | IC50 [3, 9] [µM] | other results |
| --- | --- | --- | --- | --- |
| COc1ccc(-c2cnnn2-c2cc(OC)c(OC)c(OC)c2)c(F)c1F [R^1 = R^2 = F] |  |  |  | IC50 (HT-29): 1.9 µM |
| COc1cc(-n2nncc2-c2ccccc2[N+](=O)[O-])cc(OC)c1OC [3c, 5-(2-nitrophenyl)-1-(3,4,5-trimethoxyphenyl)-1H-1,2,3-triazole] | > 200 | > 200 | > 100 |  |
| COc1cc(-n2nncc2-c2ccc(C)cc2)cc(OC)c1OC [3d, 5-(p-tolyl)-1-(3,4,5-trimethoxyphenyl)-1H-1,2,3-triazole] | > 200 | > 200 | > 100 |  |
| COc1cc(-n2nncc2-c2ccccc2Br)cc(OC)c1OC [3b, 5-(2-bromophenyl)-1-(3,4,5-trimethoxyphenyl)-1H-1,2,3-triazole] | > 200 | > 100 | > 100 |  |
| COc1cc(-n2nncc2-c2ccc(Br)cc2)cc(OC)c1OC [3h, 5-(4-bromophenyl)-1-(3,4,5-trimethoxyphenyl)-1H-1,2,3-triazole] | > 200 | > 100 | > 100 |  |
| CCOc1ccc(-c2cnnn2-c2cc(OC)c(OC)c(OC)c2)cc1 [3j, 5-(4-ethoxyphenyl)-1-(3,4,5-trimethoxyphenyl)-1H-1,2,3-triazole] | 19 ± 4 | 5.8 ± 0.8 | 0.0021 ± 0.0009 | IC50 ([3]; HT-29, 48 h incubation, rounded value, read-out: IC50 HT-29): 0.002 µM |
| COc1cc(-n2nncc2-c2ccc(O)c(Br)c2)cc(OC)c1OC [3p, 2-bromo-4-(1-(3,4,5-trimethoxyphenyl)-1H-1,2,3-triazol-5-yl)phenol] | > 200 | > 200 | > 200 |  |
| COc1ccc(/C=C\c2cc(OC)c(OC)c(OC)c2)cc1O [CA-4, combretastatin A-4] |  |  |  | IC50 [4]: 0.428 ± 0.004 µM; IC50 [5]: 25 ± 3 µM; IC50 [6]: 4.2 ± 0.5 µM |
| COc1cc(-n2nncc2-c2ccccc2)cc(OC)c1OC [3a, 5-phenyl-1-(3,4,5-trimethoxyphenyl)-1H-1,2,3-triazole] | > 200 | > 200 | > 100 |  |
| COc1ccc(-c2cnnn2-c2cc(OC)c(OC)c(OC)c2)c(N)c1N [R^1 = R^2 = NH2] |  |  |  | IC50 (HT-29): 17.2 µM |
| COc1ccc(-c2cnnn2-c2cc(OC)c(OC)c(OC)c2)c(Br)c1 [3k, 5-(2-bromo-4-methoxyphenyl)-1-(3,4,5-trimethoxyphenyl)-1H-1,2,3-triazole] | > 100 | 33 ± 2 | 56 ± 4 |  |
| COc1cc(-n2nncc2-c2ccc(C(F)(F)F)cc2)cc(OC)c1OC [3e, 5-(4-(trifluoromethyl)phenyl)-1-(3,4,5-trimethoxyphenyl)-1H-1,2,3-triazole] | > 200 | > 100 | 54 ± 3 |  |
| COc1cc(-n2nncc2-c2ccc(Cl)cc2)cc(OC)c1OC [3g, 5-(4-chlorophenyl)-1-(3,4,5-trimethoxyphenyl)-1H-1,2,3-triazole] | > 200 | > 100 | > 100 |  |
| COc1ccc(-c2cnnn2-c2cc(OC)c(OC)c(OC)c2)cc1Cl [3n, 5-(3-chloro-4-methoxyphenyl)-1-(3,4,5-trimethoxyphenyl)-1H-1,2,3-triazole] | 0.025 ± 0.008 | 0.0032 ± 0.0009 | 0.021 ± 0.006 | IC50 ([2]; A549, 48 h incubation, rounded value, read-out: IC50 A-549): 0.003 µM |
| COc1cc(-n2nncc2-c2ccc(O)c(O)c2)cc(OC)c1OC [3q, 4-(1-(3,4,5-trimethoxyphenyl)-1H-1,2,3-triazol-5-yl)benzene-1,2-diol] | > 200 | > 200 | > 200 |  |
| COc1ccc(-c2cnnn2-c2cc(OC)c(OC)c(OC)c2)cc1OC [3o, 5-(3,4-dimethoxyphenyl)-1-(3,4,5-trimethoxyphenyl)-1H-1,2,3-triazoletriazole] | > 200 | > 200 | > 100 |  |
| COc1ccc(-c2cnnn2-c2cc(OC)c(OC)c(OC)c2)cc1Br [R^1 = H, R^2 = Br] |  |  |  | IC50 [7, 10]: 0.057 µM |
| COc1cc(-n2nncc2-c2ccc(OC)c([N+](=O)[O-])c2[N+](=O)[O-])cc(OC)c1OC [R^1 = R^2 = NO2] |  |  |  | IC50 (HT-29): 12 µM |
| CCOc1ccc(-c2cnnn2-c2cc(OC)c(OC)c(OC)c2)cc1Br [3m, 5-(3-bromo-4-ethoxyphenyl)-1-(3,4,5-trimethoxyphenyl)-1H-1,2,3-triazole] | > 200 | 59 ± 1 | 20 ± 5 |  |
| COc1ccc(Br)c(-c2cnnn2-c2cc(OC)c(OC)c(OC)c2)c1 [3l, 5-(2-bromo-5-methoxyphenyl)-1-(3,4,5-trimethoxyphenyl)-1H-1,2,3-triazole] | > 200 | > 200 | > 100 |  |
| COc1cc(-n2nncc2-c2ccc(F)cc2)cc(OC)c1OC [3f, 5-(4-fluorophenyl)-1-(3,4,5-trimethoxyphenyl)-1H-1,2,3-triazole] | > 200 | > 200 | > 200 |  |
| COc1ccc(-c2cnnn2-c2cc(OC)c(OC)c(OC)c2)cc1 [3i, 5-(4-methoxyphenyl)-1-(3,4,5-trimethoxyphenyl)-1H-1,2,3-triazole] | 35 ± 9 | 0.022 ± 0.007 | 0.02 ± 0.009 | IC50 ([7]; previously described, read-out: IC50 K562 leukemia cancer cell line): 0.027 µM |
| COc1ccc(-c2cnnn2-c2cc(OC)c(OC)c(OC)c2)cc1[N+](=O)[O-] [R^1 = H, R^2 = NO2] |  |  |  | IC50 [7, 10]: 0.46 µM |
| COc1ccc(-c2cnnn2-c2cc(OC)c(OC)c(OC)c2)cc1N [R^1 = H, R^2 = NH2] |  |  |  | IC50 [7, 10]: 0.011 µM |
